Laboratory results taken from patent publication US7112603B2, “Prodrugs of 3-(pyrrol-2-ylmethylidene)-2-indolinone derivatives” (Agouron Pharmaceuticals, Inc., priority 2000, dated 2006).

Experiments:
[1] = Plasma Stability Test (IV dosing of prodrug, HPLC analysis of blood plasma); type: in vivo; conditions: dogs, IV at 2 mg/mL, HPLC analysis of blood plasma for 4 hours following dosing
Method: The prodrug (3Z)-3-[(3,5-dimethyl-1H-pyrrol-2-yl)-methylidene]-1-(1-pyrrolidinylmethyl)-1,3-dihydro-2H-indol-2-one was administered IV at 2 mg/mL to dogs. Levels of both prodrug and drug (3(Z)-3-[(3,5-dimethyl-1H-pyrrol-2-yl)-methylidene]-1,3-dihydro-2H-indol-2-one) were followed by HPLC analysis of blood plasma for 4 hours following dosing.

| Structure (SMILES) | melting point | half-life for conversion of the prodrug to drug [1] | prodrug converted into drug (from area under the curve of drug concentration vs. time) [1] |
| --- | --- | --- | --- |
| CC(=O)OC(C)N1C(=O)/C(=C\c2[nH]c(C)cc2C)c2ccccc21 (stereo not drawn) | 107 to 110 °C |  |  |
| Cc1cc(C)c(/C=C2\C(=O)N(CO)c3ccccc32)[nH]1 | 200 to 202 °C |  |  |
| Cc1cc(C)c(/C=C2\C(=O)N(CN3CCCC3)c3ccccc32)[nH]1 [Example 14, (3Z)-3-[(3,5-dimethyl-1H-pyrrol-2-yl)-methylidene]-1-(1-pyrrolidinylmethyl)-1,3-dihydro-2H-indol-2-one] |  | 7.3 min | 80% |
| Cc1cc(C)c(/C=C2\C(=O)N(C(=O)CNC(=O)OCc3ccccc3)c3ccccc32)[nH]1 | 193 to 196 °C |  |  |
| Cc1cc(C)c(/C=C2\C(=O)N(COC(=O)CCC(=O)O)c3ccccc32)[nH]1 | 160 to 162 °C |  |  |
